According to patent US6713486B1, “Antiviral 2,4-pyrimidinedione derivatives and process for the preparation thereof” (Korea Research Institute of Chemical Technology, priority 1999, dated 2004):
Read-outs that look alike come from different tables or passages of the source.

Legend:
HIV-1 = conditions: for ED50: Effective concentration for the inhibition of the proliferation of HIV-1 by 50%: HIV-1 infected MT-4 cells, MTT; for S.I. Selectivity index (CD50/ED50): CD50/ED50, MT-4 cells
From the text: First, MT-4 cells were suspended in a culture medium at a concentration of 1×10^4 cells/ml and infected with 500 TCID50 (50% cell culture infective dose)/well of HIV-1.

MT-4 cells = conditions: mock-infected MT-4 cells, MTT
Y181C HIV-1 mutant [1] = assay: Antiviral activity against mutant HIV-1 (Y181C) by the MTT method; format: cell-based; conditions: read-out: EC50: Effective concentration for the inhibition of the proliferation of mutant HIV-1 by 50%; Y181C mutant HIV-1, MTT
Experimental: Antiviral activities of the inventive compounds were determined against Y181C which is representative HIV-1 mutant having high resistance against anti-HIV-1 nonnucleosides, e.g., Nevirapine, by the MTT method. MKC-442 was employed as a comparative compound.

Y181C HIV-1 mutant [2] = conditions: read-out: EC50: Effective concentration for the inhibition of the proliferation of mutant HIV-1 by 50%; Y181C mutant HIV-1; Reference: J. Med. Chem., 42, 4500 (1999); cited from earlier work

SMILES | ED50: Effective concentration for the inhibition of the proliferation of HIV-1 by 50% (HIV-1) | CD50: Cytotoxic concentration that causes death of MT-4 cells by 50% (MT-4 cells) | EC50 (Y181C HIV-1 mutant [1]) | S.I. Selectivity index (CD50/ED50) (HIV-1) | EC50 (Y181C HIV-1 mutant [2])
Cc1cc(C)cc(C(=O)c2c(C(C)C)c(=O)[nH]c(=O)n2Cc2cc(F)cc(F)c2)c1 [Compound 43] | 3.5 ng/mL | 7.16 µg/mL | – | – | –
Cc1cc(C)cc(C(=O)c2c(C(C)C)c(=O)[nH]c(=O)n2Cc2ccncc2)c1 [Compound 1, 1-(4′-Picolyl)-5-isopropyl-6-(3′,5′-dimethylbenzoyl)-2,4-pyrimidinedione] | 2.6 ng/mL | 22.6 µg/mL | 0.005 to 0.014 µM | – | –
Cc1cc(C)cc(C(=O)c2c(C(C)C)c(=O)[nH]c(=O)n2Cc2ccncc2CO)c1 [Compound 75, 1-(3′-Hydroxymethyl-4′-picolyl)-5-isopropyl-6-(3′,5′-dimethylbenzoyl)-2,4-pyrimidinedione] | 3.1 ng/mL | 42.06 µg/mL | – | – | –
Cc1cc(Cl)cc(C(=O)c2c(C(C)C)c(=O)[nH]c(=O)n2Cc2c(C)c[n+]([O-])cc2C)c1 [Compound 71, 1-(N-oxo-3′,5′-Dimethyl-4′-picolyl)-5-isopropyl-6-(3′,-chloro-5-methylbenzoyl)-2,4-pyrimidinedione] | 8.2 ng/mL | 25.44 µg/mL | – | – | –
COC(=O)c1cnccc1Cn1c(C(=O)c2cc(C)cc(C)c2)c(C(C)C)c(=O)[nH]c1=O [Compound 78, 1-(3′-Methoxycarbonyl-4′-picolyl)-5-isopropyl-6-(31,51-dimethylbenzoyl)-2,4-pyrimidinedione] | 7.5 ng/mL | 40.79 µg/mL | – | – | –
Cc1cc(Cl)cc(C(=O)c2c(C(C)C)c(=O)[nH]c(=O)n2Cc2c(C)cncc2CO)c1 [Compound 77, 1-(3′-Hydroxymethyl-5′-methyl-4′-picolyl)-5-isopropyl-6-(3′-chloro-5′-methylbenzoyl)-2,4-pyrimidinedione] | 11.5 ng/mL | 23.51 µg/mL | – | – | –
Cc1cc(C)cc(C(=O)c2c(C(C)C)c(=O)[nH]c(=O)n2Cc2c(C)c[n+]([O-])cc2C)c1 [Compound 70, 1-(N-oxo-3′, 5-Dimethyl-4′-picolyl)-5-Isopropyl-6-(3′, 5′-dimethylbenzoyl)-2,4-Pyrimidinedione] | 5.5 ng/mL | 25.84 µg/mL | – | – | –
Cc1cc(C)cc(C(=O)c2c(C(C)C)c(=O)[nH]c(=O)n2Cc2ccncc2C(N)=O)c1 [Compound 79, 1-(3′-Carbamoyl-4′-picolyl)-5-isopropyl-6-(3′,5′-dimethylbenzoyl)-2,4-pyrimidinedione] | 9.1 ng/mL | >100 µg/mL | – | – | –
Cc1cc(Cl)cc(C(=O)c2c(C(C)C)c(=O)[nH]c(=O)n2Cc2ccncc2C(N)=O)c1 [Compound 80, 1-(3′-Carbamoyl-4′-picolyl)-5-isopropyl-6-(3′-chloro-5′-methylbenzoyl)-2,4-pyrimidinedione] | 11.1 ng/mL | 27.83 µg/mL | – | – | –
Cc1cc(Cl)cc(Cn2c(C(=O)c3cc(C)cc(C)c3)c(C(C)C)c(=O)[nH]c2=O)c1 [Compound 40] | 34.8 ng/mL | 7.97 µg/mL | – | – | –
Cc1cc(C)cc(C(=O)c2c(C(C)C)c(=O)[nH]c(=O)n2Cc2ccccn2)c1 [Compound 3, 1-(2′-Picolyl)-5-isopropyl-6-(3′, 5′-dimethylbenzoyl)-2,4-pyrimidinedione] | 5.5 ng/mL | 26.1 µg/mL | – | – | –
Cc1cc(C)cc(C(=O)c2c(C(C)C)c(=O)[nH]c(=O)n2Cc2cc[n+]([O-])cc2C)c1 [Compound 69, 1-(N-oxo-3′-Methyl-4′-picolyl)-5-isopropyl-6-(3′, 5′-dimethylbenzoyl)-2,4-pyrimidinedione] | 12.5 ng/mL | 48.25 µg/mL | – | – | –
Cc1cc(C)cc(C(=O)c2c(C(C)C)c(=O)[nH]c(=O)n2Cc2cc[n+]([O-])cc2)c1 [Compound 68, 1-(N-oxo-4′-Picolyl)-5-isopropyl-6-(3′,5′-dimethylbenzoyl)-2,4-pyrimidinedione] | 14.5 ng/mL | 56.9 µg/mL | – | – | –
CC(=O)OCc1cncc(C)c1Cn1c(C(=O)c2cc(C)cc(C)c2)c(C(C)C)c(=O)[nH]c1=O [Compound 73, 1-(3′-Acetoxymethyl-5′-methyl-4′-picolyl)-5-isopropyl-6-(3′,5′-dimethylbenzoyl)-2,4-pyrimidinedione] | 6.7 ng/mL | 39.65 µg/mL | – | – | –
Cc1cc(C)cc(C(=O)c2c(C(C)C)c(=O)[nH]c(=O)n2Cc2cccnc2)c1 [Compound 2, 1-(3′-Picolyl)-5-isopropyl-6-(3′, 5′-dimethylbenzoyl)-2,4-pyrimidinedione] | 3.6 ng/mL | 27.2 µg/mL | – | – | –
Cc1cc(C)cc(C(=O)c2c(C(C)C)c(=O)[nH]c(=O)n2Cc2cc(C(F)(F)F)cc(C(F)(F)F)c2)c1 [Compound 44] | 1800 ng/mL | 8.17 µg/mL | – | – | –
CCOCn1c(Cc2ccccc2)c(C(C)C)c(=O)[nH]c1=O [MKC-442, 6-benzyl-1-ethoxymethyl-5-isopropyluracil, reference compound] | 5 ng/mL | – | – | 5,544 | 13.4 µM
Cc1cc(C)cc(C(=O)c2c(C(C)C)c(=O)[nH]c(=O)n2Cc2c(C)cncc2CO)c1 [Compound 76, 1-(3′-Hydroxymethyl-5′-methyl-4′-picolyl)-5-isopropyl-6-(3′, 5′-dimethylbenzoyl)-2,4-pyrimidinedione] | 8.4 ng/mL | 38.39 µg/mL | – | – | –
Cc1cc(C)cc(Nc2c(C(C)C)c(=O)[nH]c(=O)n2Cc2ccncc2)c1 [Compound 66, 1-(4′-Picolyl)-5-isopropyl-6-(3′, 5′-dimethylphenylamino)-2,4-pyrimidinedione] | 80 ng/mL | >100 µg/mL | – | – | –
CC(=O)OCc1cnccc1Cn1c(C(=O)c2cc(C)cc(C)c2)c(C(C)C)c(=O)[nH]c1=O [Compound 72, 1-(3′-Acetoxymethyl-4′-picolyl)-5-Isopropyl-6-(3′,5′-dimethylbenzoyl)-2,4-pyrimidinedione] | 8.8 ng/mL | 38.49 µg/mL | – | – | –
CCc1c(Nc2cc(C)cc(C)c2)n(Cc2ccncc2)c(=O)[nH]c1=O [Compound 67, 1-(4′-Picolyl)-5-ethyl-6-(3′, 5′-dimethylphenylamino)-2,4-pyrimidinedione] | 420 ng/mL | 54.5 µg/mL | – | – | –
Cc1cc(C)cc(C(=O)c2c(C(C)C)c(=O)[nH]c(=O)n2Cc2ccc(N)cc2)c1 [Compound 81, 1-(4′-Aminobenzyl)-5-isopropyl-6-(3′,5′-dimethylbenzoyl)-2,4-pyrimidinedione] | 15 ng/mL | 9.63 µg/mL | – | 648 | –
